Measurements published in US9440963B2, “Compositions, formulations and methods for treating ocular diseases” (Aerpio Therapeutics Inc., priority 2013, dated 2016).
≈ marks a conversion by molar mass, not a printed value. Read-outs that look alike come from different tables or passages of the source.

Tests used:
[1] = Room temperature aqueous solubility with solubilizing agents (Example 36); format: physicochemical
Description: The room temperature aqueous solubility (mg/mL) of the a compound (4-{(S)-2-[(S)-2-methoxycarbonylamino)-3-phenylpropanamido]-2-[2-(thiophen-2-yl)thiazol-4-yl]ethyl}phenylsulfamic acid) in water, HPβCD, Poloxamer 407, and sulfobutylether-β-cyclodextrin, is provided in TABLE XXVII. Solubility in saline for the test compound is reduced presumably due to the common ion effect.
The solubility (mg/mL) of the test compound in mixtures of HPβCD and PEG400 is illustrated in TABLE XXVIII.

[2] = human, in vivo
Protocol: FIG. 9 depicts the mean plasma concentration over time after a single dose of a 5 mg, a 15 mg, a 22.5 mg, or a 30 mg of a test compound on day 14, respectively, in a multiple ascending dose study in patients with diabetic macular edema.
A phase 1B/2A open-label, Multiple-ascending dose cohort study to assess the pharmacokinetics and pharmacodynamics effect of 28-day repeat subcutaneous dose of 4-{(S)-2-[(S)-2-(methoxycarbonylamino)-3-phenylpropanamido]-2-[2-(thiophen-2-yl)thiazol-4-yl]ethyl}phenylsulfamic acid (drug) in subjects with diffuse diabetic macular edema (DME).
The aim of this study was to evaluate tolerability, safety, efficacy and pharmacokinetics and pharmacodynamics in patients with DME involving the center of the fovea with central subfield mean thickness ≧325 μm measured by spectral domain-optical coherence tomography (SD-OCT).
Twenty-four patients were administered ascending doses of test compound twice daily (BID) for 28 days in 4 separate cohorts at 5, 15, 22.5 or 30 mg BID, respectively.
Drug was supplied as a lyophilized powder in a vial for reconstitution. Each vial contained 100 mg drug and 250 mg HPβCD. Vials were reconstituted with sterile 5% dextrose for cohort 1 (5 mg BID) and with sterile diluent containing 5% HPβCD/1% dextrose for cohorts 2, 3, and 4 (15 mg, 22.5 mg and 30 mg BID).
For cohorts 1 (5 mg BID) and 2 (15 mg BID) the volume administered for each dose was 0.5 ml (10 and 30 mg/ml, respectively) and for cohorts 3 and 4 the volume was 0.75 ml (30 and 40 mg/ml, respectively).
Blood samples for pharmacokinetic profiling were taken pre-dose (0), 15 minutes, 1 hour, 2 hours, 3 hours and 4 hours after administration of the first dose on day 14.
Plasma drug concentration was determined with a validated LC/MS-MS method. The pharmacokinetic (PK) parameters were determined using a standard non-compartmental method, and Cmax, AUClast (with last being from time 0 to the last quantifiable point), AUCinf, were analyzed statistically using log-transformed data.

[3] = Chemical and physical stability of aqueous solution formulations (Table XXIX); format: physicochemical; details: for Concentration of test compound in aqueous solution formulation shown to be chemically and physically stable: chemically stable 1 month at 50 °C, physically stable at 5 °C, ambient, 50 °C
Protocol: TABLE XXIX contains aqueous solution formulations of the test compound above with the denoted solvents that have been prepared and shown to be chemically stable through 1 month at 50° C., and physically stable at 5° C., at ambient temperature, and at 50° C. […] The target pH range for the formulations is pH 7+/−0.5 pH units.

solubility with either HPβCD or PEG400 individually [1]: increase in solubility
Solubility ([1]; 0% HPβCD, 15% PEG400): 30 mg/mL (≈ 51.1 mM)
Solubility ([1]; 0% HPβCD, 30% PEG400): 68 mg/mL (≈ 116 mM)
Solubility ([1]; 15% HPβCD, 0% PEG400): 59 mg/mL (≈ 101 mM)
Solubility ([1]; 15% HPβCD, 5% PEG400): 57 mg/mL (≈ 97.2 mM)
Solubility ([1]; 15% HPβCD, 10% PEG400): 34 mg/mL (≈ 57.9 mM)
Solubility ([1]; 15% HPβCD, 15% PEG400): 6 mg/mL (≈ 10.2 mM)
Solubility ([1]; room temperature, aqueous, 0% HPβCD (water)): 27 mg/mL (≈ 46 mM)
Solubility ([1]; room temperature, aqueous, 10% HPβCD): 45 mg/mL (≈ 76.7 mM)
Solubility ([1]; room temperature, aqueous, 15% SBE-β-CD): 44 mg/mL (≈ 75 mM)
Solubility ([1]; room temperature, aqueous, 20% HPβCD): 57 mg/mL (≈ 97.2 mM)
Solubility ([1]; room temperature, aqueous, 20% Poloxamer 407): 44 mg/mL (≈ 75 mM)
Solubility ([1]; room temperature, aqueous, 30% HPβCD): 72 mg/mL (≈ 123 mM)
solubility on addition of PEG400 to a mixture with HPβCD ([1]; solubility inversely proportional to the amount of PEG400): erosion of solubility
overall exposures versus dose [2]: approximately dose proportional
AUCinf Geometric Mean ([2]; 5 mg): 102.92 ng·h/mL
AUCinf Mean ([2]; 5 mg): 106.46 ng·h/mL
AUCinf Median ([2]; 5 mg): 100.55 ng·h/mL
AUCinf Min-Max ([2]; 5 mg): 70.1 to 155.1 ng·h/mL
AUClast Geometric Mean ([2]; 5 mg): 98.63 ng·h/mL
AUClast Mean ([2]; 5 mg): 101.56 ng·h/mL
AUClast Median ([2]; 5 mg): 97.03 ng·h/mL
AUClast Min-Max ([2]; 5 mg): 67.9 to 142.6 ng·h/mL
Cmax Geometric Mean ([2]; 5 mg): 0.07448 µg/mL
Cmax Mean ([2]; 5 mg): 0.07775 µg/mL
Cmax Median ([2]; 5 mg): 0.07344 µg/mL
Cmax Min-Max ([2]; 5 mg): 0.0447 to 0.1081 µg/mL
t1/2 Mean (SD) ([2]; 5 mg): 0.85 (0.186) hr
t1/2 Median ([2]; 5 mg): 49.8 min
t1/2 Min-Max ([2]; 5 mg): 36 to 66 min
tmax Mean (SD) ([2]; 5 mg): 0.31 (0.134) hr
tmax Median ([2]; 5 mg): 15.6 min
tmax Min-Max ([2]; 5 mg): 18 to 36 min
AUCinf Geometric Mean ([2]; 15 mg): 245.89 ng·h/mL
AUCinf Mean ([2]; 15 mg): 255.08 ng·h/mL
AUCinf Median ([2]; 15 mg): 232.89 ng·h/mL
AUCinf Min-Max ([2]; 15 mg): 176.8 to 387.4 ng·h/mL
AUClast Geometric Mean ([2]; 15 mg): 230.97 ng·h/mL
AUClast Mean ([2]; 15 mg): 239.08 ng·h/mL
AUClast Median ([2]; 15 mg): 213.32 ng·h/mL
AUClast Min-Max ([2]; 15 mg): 170.4 to 353.3 ng·h/mL
Cmax Geometric Mean ([2]; 15 mg): 0.14986 µg/mL
Cmax Mean ([2]; 15 mg): 0.15657 µg/mL
Cmax Median ([2]; 15 mg): 0.13805 µg/mL
Cmax Min-Max ([2]; 15 mg): 0.1025 to 0.2263 µg/mL
t1/2 Mean (SD) ([2]; 15 mg): 0.96 (0.282) hr
t1/2 Median ([2]; 15 mg): 53.4 min
t1/2 Min-Max ([2]; 15 mg): 36 to 84 min
tmax Mean (SD) ([2]; 15 mg): 0.27 (0.039) hr
tmax Median ([2]; 15 mg): 15 min
tmax Min-Max ([2]; 15 mg): 12 to 18 min
AUCinf Geometric Mean ([2]; 22.5 mg): 454.63 ng·h/mL
AUCinf Mean ([2]; 22.5 mg): 498.12 ng·h/mL
AUCinf Median ([2]; 22.5 mg): 358.19 ng·h/mL
AUCinf Min-Max ([2]; 22.5 mg): 322.4 to 813.8 ng·h/mL
AUClast Geometric Mean ([2]; 22.5 mg): 400.80 ng·h/mL
AUClast Mean ([2]; 22.5 mg): 437.51 ng·h/mL
AUClast Median ([2]; 22.5 mg): 328.84 ng·h/mL
AUClast Min-Max ([2]; 22.5 mg): 302.7 to 789.6 ng·h/mL
Cmax Geometric Mean ([2]; 22.5 mg): 0.21572 µg/mL
Cmax Mean ([2]; 22.5 mg): 0.2374 µg/mL
Cmax Median ([2]; 22.5 mg): 0.2032 µg/mL
Cmax Min-Max ([2]; 22.5 mg): 0.1427 to 0.4005 µg/mL
t1/2 Mean (SD) ([2]; 22.5 mg): 0.84 (0.093) hr
t1/2 Median ([2]; 22.5 mg): 52.2 min
t1/2 Min-Max ([2]; 22.5 mg): 42 to 54 min
tmax Mean (SD) ([2]; 22.5 mg): 0.45 (0.370) hr
tmax Median ([2]; 22.5 mg): 16.2 min
tmax Min-Max ([2]; 22.5 mg): 18 to 60 min
AUCinf Geometric Mean ([2]; 30 mg): 824.87 ng·h/mL
AUCinf Mean ([2]; 30 mg): 828.62 ng·h/mL
AUCinf Median ([2]; 30 mg): 834.70 ng·h/mL
AUCinf Min-Max ([2]; 30 mg): 729.7 to 921.4 ng·h/mL
AUClast Geometric Mean ([2]; 30 mg): 657.33 ng·h/mL
AUClast Mean ([2]; 30 mg): 669.37 ng·h/mL
AUClast Median ([2]; 30 mg): 700.90 ng·h/mL
AUClast Min-Max ([2]; 30 mg): 444.1 to 796.1 ng·h/mL
Cmax Geometric Mean ([2]; 30 mg): 0.31424 µg/mL
Cmax Mean ([2]; 30 mg): 0.32048 µg/mL
Cmax Median ([2]; 30 mg): 0.32085 µg/mL
Cmax Min-Max ([2]; 30 mg): 0.2209 to 0.4261 µg/mL
t1/2 Mean (SD) ([2]; 30 mg): 1.07 (0.338) hr
t1/2 Median ([2]; 30 mg): 55.8 min
t1/2 Min-Max ([2]; 30 mg): 48 to 90 min
tmax Mean (SD) ([2]; 30 mg): 0.63 (0.391) hr
tmax Median ([2]; 30 mg): 38.4 min
tmax Min-Max ([2]; 30 mg): 12 to 60 min
Tmax ([2]; sc, 30 mg): 12 to 60 min
elimination half-life ([2]; sc, 30 mg): 36 to 90 min
Concentration of test compound in aqueous solution formulation shown to be stable ([3]; 4.5% mannitol, one week at room temperature and one week at 50 °C): 5 mg/mL^b
Concentration of test compound in aqueous solution formulation shown to be chemically and physically stable ([3]; 10% HPβCD): 15000 µg/mL
Concentration of test compound in aqueous solution formulation evaluated for stability ([3]; 15% HPβCD/0.25% saline, evaluated for short-term physical stability at 5 °C and ambient temperature): 40 mg/mL^a
Concentration of test compound in aqueous solution formulation shown to be chemically and physically stable ([3]; 25% HPβCD): 50000 µg/mL
Concentration of test compound in aqueous solution formulation shown to be chemically and physically stable ([3]; 30% HPβCD): 50000 µg/mL
SMILES: COC(=O)N[C@@H](Cc1ccccc1)C(=O)N[C@@H](Cc1ccc(NS(=O)(=O)O)cc1)c1csc(-c2cccs2)n1 [test compound]
Physical and chemical stability of formulation ([3]; 4.5% mannitol, 5 mg/mL test compound, one week at room temperature and one week at 50 °C): ^bPhysically and chemically stable through one week at room temperature and one week at 50 °C
